From publication PMC12366525, “Characterization of allosteric modulators that disrupt androgen receptor co-activator protein-protein interactions to alter transactivation–Drug leads for metastatic castration resistant prostate cancer” (SLAS discovery : advancing life sciences R & D, 2023)

Columns and labels:
AR-LBD and SRC1 = biological target: T1, AR-LBD and SRC1 (Homo sapiens, UniProt P10275); assay: SRC1 mammalian 2-hybrid (M2H) assay; assay type: cell-based; conditions: HEK 293 cells; 25 nM DHT; 27 h compound exposure; read-out: M2H AR-SRC1 CoA Recruitment IC50
T1 construct: AR-LBD amino acids 658–919 expressed as a fusion protein with Gal4-DBD; expressed in transfected cells; host or cells: HEK 293
T1 sequence (P10275 658-919): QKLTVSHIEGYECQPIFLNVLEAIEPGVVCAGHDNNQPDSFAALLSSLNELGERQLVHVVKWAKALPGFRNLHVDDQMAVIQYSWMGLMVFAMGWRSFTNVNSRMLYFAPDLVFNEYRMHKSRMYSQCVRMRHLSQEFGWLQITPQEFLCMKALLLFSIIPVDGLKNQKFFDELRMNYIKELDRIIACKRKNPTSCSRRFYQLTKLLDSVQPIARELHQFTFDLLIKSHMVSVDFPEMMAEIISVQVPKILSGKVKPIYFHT
Text: The 5xGAL4-TATA-luciferase reporter plasmid was a gift from Dr. Richard Maurer from the Oregon Health and Science University, and constructs pGAL4-hAR-658–919 (AR-LBD amino acids 658–919 expressed as a fusion protein with Gal4-DBD), pVP16-SRC1 (full--length SRC1 expressed as a fusion with VP16 activation domain) and pVP16-Empty vector were kindly provided to us by Dr. Elizabeth Wilson, from UNC Chapel Hill. pVP16-TIF2 was generated as described previously. HEK 293 cells were transiently co-transfected with 5 ng of pGal4-AR-LBD, 10 ng of either pVP16-TIF2 or pVP16-SRC1, and 20 ng of the 5xGal4-TATA-Luc reporter as described previously. HEK 293 cells were bulk co-transfected with the three plasmids that had been individually incubated with Fugene 6 at a 3:1 ratio for 25 min at room temperature (RT) in serum free media (SFM) and then combined with HEK 293 cells that were suspended in DMEM (Cellgro10013CV) with 2 mM L-glutamine (Invitrogen) that was supplemented with 10% fetal bovine serum, and 5000 cells in a volume of 40 μL were seeded into the wells of white opaque 384-well assay plates (Greiner Bio-one, #781080) and cultured overnight at 37 °C, 5% CO2, and 95% humidity. […] 25 μL of BrightGlo® reagent was added to the plate and the relative luminescence units (RLUs) were captured on a SpectraMax M5e microtiter plate reader (Molecular Devices, LLC, San Jose, CA).

TIF2 = biological target: T2, TIF2 (Homo sapiens, UniProt Q15596); assay: Western blotting cellular thermal shift assay for TIF2 in C4–2 cells; assay type: cell-based; conditions: 20 μM 1 h at 37 °C prior to heat shock at 46 °C
T2 construct: endogenous in cells; host or cells: C4–2 cells
Procedure: C4–2 cells were harvested by trypsinization, washed 1x by centrifugation at 270 × g for 5 min and resuspension in PBS, counted, centrifugated at 270 × g for 5 min and resuspended at 7 × 10 [6] cells per mL in Opti-MEM medium (Gibco, Gaithersburg, MD). 50 μL of C4–2 cell suspension (3.5 × 10 [5] cells) were then transferred to PCR tubes that were placed in a T-100 thermocycler (BioRad, Hercules, CA) and a 2 °C interval temperature step gradient from 37 °C to 53 °C was applied. Cells were maintained at each step of the temperature gradient for 5 min and then tubes were withdrawn and placed on ice. 50 μL of cell lysis buffer, 500 mM NaCl, 1% NP-40, 1x protease inhibitor cocktail in PBS were added to the heat shocked cell suspensions in PCR tubes and placed on ice for an additional 30 min. Cell lysates were then centrifuged at 14,000 RPM (18,800 × g) at 4 °C for 15 min and supernatants were transferred to new tubes and protein concentrations were determined in a bicinchoninic acid (BCA) assay. 45 μL of cell lysis supernatants were mixed with 15 μL of 5x SDS-PAGE sample buffer and placed in a heat block at 100 °C for 5 min. The protein constituents of heat shocked C4–2 cell lysis supernatants were separated by SDS-PAGE on 8% separating gels, transferred to nitrocellulose membranes that were blocked for 1 h at room temperature in 5% non-fat milk in TBST, and then probed overnight at 4 °C with a 1:1000 dilution of either rabbit anti-AR (Cell Signaling, Danvers, MA) or rabbit anti-TIF2 (Bethyl Laboratories, Waltham, MA) primary antibodies in TBST containing 5% non-fat milk. Membranes were then washed 3x in TBST buffer for 10 min, then incubated with a 1:10,000 dilution of the goat anti-rabbit IgG HRP conjugated secondary antibody (Invitrogen, Carlsbad,CA) in TBST containing 5% non-fat milk for 1 h at room temperature. Western blots were then washed 3x in TBST buffer and developed with Pierce ECL western blotting substrate. Images of ECL western blots were acquired on an iBright 1500 imaging system and quantified using the iBright image analysis software.

PSA = assay: Dot blot of PSA secretion by C4–2 cells; assay type: cell-based, human; conditions: 10 nM DHT 24 h; 20 μM compound 3 h pre-exposure
Procedure: To determine PSA secretion levels, C4–2 cells were seeded at 1.4 × 10 [5] cells/well in 12-well plates and treated as described above for PSA cell expression experiments. […] 500 μL of conditioned media supernatant was added to the wells of 96-well to Bio-blot apparatus (BioRad, Hercules, CA) containing a nitrocellulose membrane and was allowed to pass through and attach to the membrane under gravity for 3–4 h at room temperature. The membrane was washed 1x with 500 μL TBS under vacuum, blocked with 1% BSA in TBST for 1 h, and then incubated overnight at 4 °C with the primary rabbit anti-hPSA antibody (Cell Signaling, Danvers, MA) diluted 1:1000 in TBST plus 1% BSA. Dot blots were washed 3x in 10 mL of TBST for 10 min, then incubated for 1 h with secondary goat anti-rabbit-IgG HRP conjugated antibody (Invitrogen, Carlsbad, CA) diluted 1:10,000 in TBST plus 1% Bovine Serum Albumin (BSA), washed 3x with 10 mL of TBST for 10 min, and then developed with Pierce ECL western blotting substrate. Images of ECL dot blots were acquired on an iBright 1500 imaging system and quantified by iBright image analysis software.

T2 sequence (Q15596 whole entry): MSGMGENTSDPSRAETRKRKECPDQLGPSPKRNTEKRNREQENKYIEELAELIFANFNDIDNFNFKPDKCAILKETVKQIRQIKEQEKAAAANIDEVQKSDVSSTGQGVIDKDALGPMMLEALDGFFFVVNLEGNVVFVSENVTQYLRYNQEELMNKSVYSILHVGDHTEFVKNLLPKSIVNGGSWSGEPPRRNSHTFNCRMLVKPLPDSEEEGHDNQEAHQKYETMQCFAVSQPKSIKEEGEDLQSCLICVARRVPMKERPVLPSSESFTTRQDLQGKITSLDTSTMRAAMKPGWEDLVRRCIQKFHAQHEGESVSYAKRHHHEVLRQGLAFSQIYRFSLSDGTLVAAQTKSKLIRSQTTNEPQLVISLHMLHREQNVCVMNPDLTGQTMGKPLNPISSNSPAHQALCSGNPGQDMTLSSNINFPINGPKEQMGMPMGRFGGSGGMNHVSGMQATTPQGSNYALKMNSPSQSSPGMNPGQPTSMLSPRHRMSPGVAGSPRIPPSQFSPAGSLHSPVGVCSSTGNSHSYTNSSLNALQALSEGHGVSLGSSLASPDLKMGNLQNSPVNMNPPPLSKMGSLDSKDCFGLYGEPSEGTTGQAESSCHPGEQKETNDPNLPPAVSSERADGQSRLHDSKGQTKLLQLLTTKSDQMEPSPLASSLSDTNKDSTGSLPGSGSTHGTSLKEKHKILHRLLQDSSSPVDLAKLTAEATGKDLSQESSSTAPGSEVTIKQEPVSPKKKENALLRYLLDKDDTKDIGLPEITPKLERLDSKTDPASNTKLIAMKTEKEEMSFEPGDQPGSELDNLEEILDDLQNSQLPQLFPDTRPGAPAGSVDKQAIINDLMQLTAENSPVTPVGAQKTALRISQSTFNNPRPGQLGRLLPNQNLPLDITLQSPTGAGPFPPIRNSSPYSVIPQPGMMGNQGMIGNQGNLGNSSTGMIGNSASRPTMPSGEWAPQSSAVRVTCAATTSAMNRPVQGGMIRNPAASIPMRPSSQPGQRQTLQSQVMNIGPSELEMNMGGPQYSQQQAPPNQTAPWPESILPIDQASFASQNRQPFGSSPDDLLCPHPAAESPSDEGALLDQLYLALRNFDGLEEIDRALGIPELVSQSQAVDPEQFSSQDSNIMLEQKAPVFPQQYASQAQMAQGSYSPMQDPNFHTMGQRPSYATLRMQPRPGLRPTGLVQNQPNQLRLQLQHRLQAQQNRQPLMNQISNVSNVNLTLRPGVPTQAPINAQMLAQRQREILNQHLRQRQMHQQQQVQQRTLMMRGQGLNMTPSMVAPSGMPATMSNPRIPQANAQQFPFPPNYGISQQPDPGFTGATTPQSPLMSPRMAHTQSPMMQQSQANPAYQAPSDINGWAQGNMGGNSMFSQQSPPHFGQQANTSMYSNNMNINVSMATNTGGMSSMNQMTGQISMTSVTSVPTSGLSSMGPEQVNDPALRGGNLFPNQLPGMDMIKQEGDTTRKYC

Row | Compound | IC50 (AR-LBD and SRC1) [µM] | Effect on TIF2 thermal stability (TIF2) | C4-2 cell supernatants PSA Dot Blot, relative to DMSO (100%) (PSA) [%]
1 | Cc1ccccc1-c1cc(O)c2c(c1)CN(c1nc(C(N)=O)cs1)CCO2 [S1–1] | 3.57 | did not enhance TIF2 thermal stability over DMSO | 57.7
2 | Cc1ccccc1-c1cc(O)c2c(c1)CN(c1nccs1)CCO2 [S1–3] | 5.19 | – | –
3 | Cc1nsc(NC(=O)N2CCC(Sc3ccccc3C)CC2)n1 [S2–6] | 0.46 | did not enhance TIF2 thermal stability over DMSO | 12.8
4 | Cc1c(-c2ccccc2F)[nH]c2ccc(CNC(=O)CCc3cn[nH]c3)cc12 [S3–11] | 4.79 | did not enhance TIF2 thermal stability over DMSO | 25.5

Second part, led by results:

Row | IC50 (AR-LBD and SRC1) [µM] | Compound | Effect on TIF2 thermal stability (TIF2) | C4-2 cell supernatants PSA Dot Blot, relative to DMSO (100%) (PSA) [%]
5 | 3.93 | Cc1c(-c2ccccc2F)[nH]c2ccc(CNC(=O)CCc3cnccn3)cc12 [S3–12] | – | –
6 | 11.7 | CC(=O)NCCC(=O)NCc1ccc2[nH]c(-c3ccccc3F)c(C)c2c1 [S3–13] | – | –
7 | 2.5 | Cc1c(-c2ccccc2F)[nH]c2ccc(CNC(=O)c3ccc(CO)o3)cc12 [S3–14] | – | –
8 | 2.99 | Cc1c(-c2ccc(F)cc2)[nH]c2ccc(CNC(=O)c3ccc(CO)o3)cc12 [S3–15] | – | –
